Reference: article PMC12064818, “A general assay platform to study protein pharmacology using ligand-dependent structural dynamics” (Nature Communications, 2025)
Where two headings read alike, the source gives them in different places.

Key:
[1] = target: PKA-N-HiBiT (Homo sapiens, UniProt P17612); assay: SDR assay, PKA-N-HiBiT; details: PKA-N-HiBiT qHTS, SDR assay; average maximal response
[2] = target: T1, ABL1-N-HiBiT kinase domain (Homo sapiens, UniProt P00519); assay: SDR assay, ABL1-N-HiBiT; details: for ABL1 SDR pSDR50: heatmap data, 128 kinase inhibitors; for EC50: read-out: SDR Ave SDR50, average
T1 sequence (P00519 233-500): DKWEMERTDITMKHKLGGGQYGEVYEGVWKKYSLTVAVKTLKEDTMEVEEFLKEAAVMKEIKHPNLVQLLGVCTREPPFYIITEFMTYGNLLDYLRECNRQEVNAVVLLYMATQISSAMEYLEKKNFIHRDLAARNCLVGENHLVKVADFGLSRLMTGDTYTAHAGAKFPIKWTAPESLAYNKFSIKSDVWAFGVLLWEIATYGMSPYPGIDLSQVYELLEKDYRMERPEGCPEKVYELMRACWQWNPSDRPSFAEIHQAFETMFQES

[3] = test system: PKA; details: annotation yes/no for kinase library compound; source not given; cited from earlier work
[4] = ABL1-N-HiBiT qHTS, average maximal SDR response

Compound	SDR Ave Max Response [1]	SDR Ave Max Response [2, 4]	Annotated PKA activity [3]	ABL1 SDR pSDR50 [2]	SDR Ave Max Response [2]	EC50 ([2]; ABL1-N-HiBiT qHTS, unit inferred) [µM]	SDR Ave Max Response ([2]; ABL1-N-HiBiT qHTS, SDR assay, average maximal response)	EC50 ([2]; ABL1-N-HiBiT qHTS, SDR assay) [µM]
Cn1sc(=O)n(Cc2ccccc2)c1=O [TDZD 8]	1.44	-3.85	no					
O=C1CCC(N2C(=O)c3ccccc3C2=O)C(=O)N1 (stereo not drawn) [Thalidomide]	-13.01	-2.59	no					
COC(=O)Nc1ccc(-c2nc(N3CCOCC3)c3cnn(C4CCN(C(=O)OC)CC4)c3n2)cc1 [WYE-354]	4.88	1.70	no					
C=CC(=O)Nc1cccc(Oc2nc(Nc3ccc(N4CCN(C)CC4)cc3OC)ncc2Cl)c1 [WZ4002]	3.01	9.81	no					
CCNC(=O)Nc1ccc(-c2nc3c(c(N4CCOC[C@@H]4C)n2)CCN(c2ncccn2)C3)cc1 [mTOR-IN-1]	1.84	10.90	no					
CaMKII-IN-1	-11.95	-23.39	no	4.38				
Indirubin	5.53		no		2.52			
Mps1-IN-3	14.72	66.03	no	4.80				
PHT-427	-6.93	10.06	no					
PLX-4720	5.33	37.18	no	4.63		24.5		
STF-083010	1.50	-0.63	no					
UK-371804	6.35		no	4.69			-28.31	26.5
